Assay results: ChEMBL document CHEMBL3436046, “Predictive model for L-type channel inhibition: multichannel block in QT prolongation risk assessment” (J Appl Toxicol, 2012)
One block for each compound: values may come before it.

Key:
[1] = molecular target: T1, Voltage-dependent L-type calcium channel subunit alpha-1C (Cavia porcellus, UniProt O35505); assay: (§1) Inhibition of L-type calcium channel measured using whole-cell patch clamp in guinea pig ventricular myocytes; format: functional, cell-based, Heart, Ventricular myocyte; parameters: ca sol conc 1.8 mM, temp 20-22 C
[2] = molecular target: T2, Voltage-dependent L-type calcium channel subunit alpha-1C (Rattus norvegicus, UniProt P22002); assay: (§2) Inhibition of L-type calcium channel measured using whole-cell patch clamp in rat ventricular myocytes; format: functional, cell-based, Heart, Ventricular myocyte; parameters: ca sol conc 1.8 mM, temp 22-24 C
[3] = molecular target: T1, Voltage-dependent L-type calcium channel subunit alpha-1C; assay: as §1; format: functional, cell-based, Heart, Ventricular myocyte; parameters: ca sol conc 1.8 mM, temp 20-22 C; remark: listed apart in the source
[4] = molecular target: T1, Voltage-dependent L-type calcium channel subunit alpha-1C; assay: as §1; format: functional, cell-based, Heart, Ventricular myocyte; parameters: ca sol conc 1.8 mM, temp room
[5] = molecular target: T1, Voltage-dependent L-type calcium channel subunit alpha-1C; assay: as §1; format: functional, cell-based, Heart, Ventricular myocyte; parameters: ca sol conc 1 mM, temp 20 C
[6] = molecular target: T1, Voltage-dependent L-type calcium channel subunit alpha-1C; assay: as §1; format: functional, cell-based, Heart, Ventricular myocyte; parameters: ca sol conc 1.8 mM, temp 36-37 C
[7] = molecular target: T2, Voltage-dependent L-type calcium channel subunit alpha-1C; assay: as §2; format: functional, cell-based, Heart, Ventricular myocyte; parameters: ca sol conc 2 mM, temp 36-37 C
[8] = molecular target: T2, Voltage-dependent L-type calcium channel subunit alpha-1C; assay: as §2; format: functional, cell-based, Heart, Ventricular myocyte; parameters: ca sol conc 2 mM, temp 36-37 C; remark: listed apart in the source
[9] = molecular target: T3, Voltage-dependent L-type calcium channel subunit alpha-1C (Homo sapiens, UniProt Q13936); assay: (§3) Inhibition of L-type calcium channel measured using […] kidney cells heterologically expressing alpha-1C subunit; format: functional, cell-based, HEK293; parameters: ca sol conc 0 mM, temp 37 C
[10] = molecular target: T3, Voltage-dependent L-type calcium channel subunit alpha-1C; assay: as §3; format: functional, cell-based, HEK293; parameters: ca sol conc 10 mM, temp room
[11] = molecular target: T3, Voltage-dependent L-type calcium channel subunit alpha-1C; assay: (§4) Inhibition of L-type calcium channel measured using 2-electrode voltage-clamp in Xenopus oocyte heterologically expressing alpha-1C subunit; format: functional, cell-based; parameters: ca sol conc 0 mM, temp room
[12] = molecular target: T3, Voltage-dependent L-type calcium channel subunit alpha-1C; assay: as §4; format: functional, cell-based; parameters: ca sol conc 0 mM, temp room; remark: listed apart in the source
[13] = molecular target: T1, Voltage-dependent L-type calcium channel subunit alpha-1C; assay: as §1; format: functional, cell-based, Heart, Ventricular myocyte; parameters: ca sol conc 1.8 mM, temp 20-22 C; remark: listed apart in the source
[14] = molecular target: T2, Voltage-dependent L-type calcium channel subunit alpha-1C; assay: as §2; format: functional, cell-based, Heart, Ventricular myocyte; parameters: ca sol conc 1 mM, temp 20-24 C
[15] = molecular target: T2, Voltage-dependent L-type calcium channel subunit alpha-1C; assay: as §2; format: functional, cell-based, Heart, Ventricular myocyte; parameters: ca sol conc 1.8 mM, temp room
[16] = molecular target: T1, Voltage-dependent L-type calcium channel subunit alpha-1C; assay: as §1; format: functional, cell-based, Heart, Ventricular myocyte; parameters: ca sol conc 1.8 mM, temp 32-33 C
[17] = molecular target: T2, Voltage-dependent L-type calcium channel subunit alpha-1C; assay: as §2; format: functional, cell-based, Heart, Ventricular myocyte; parameters: ca sol conc 2 mM, temp 22-23 C
[18] = molecular target: T3, Voltage-dependent L-type calcium channel subunit alpha-1C; assay: Inhibition of L-type calcium channel measured using […] ovary cells heterologically expressing alpha-1C subunit; format: functional, cell-based, Cricetulus griseus, CHO; parameters: ca sol conc 0 mM, temp room
[19] = molecular target: T3, Voltage-dependent L-type calcium channel subunit alpha-1C; assay: as §4; format: functional, cell-based; parameters: ca sol conc 0 mM, temp room; remark: listed apart in the source
[20] = molecular target: T2, Voltage-dependent L-type calcium channel subunit alpha-1C; assay: as §2; format: functional, cell-based, Heart, Ventricular myocyte; parameters: ca sol conc 0 mM, temp room
[21] = molecular target: T1, Voltage-dependent L-type calcium channel subunit alpha-1C; assay: as §1; format: functional, cell-based, Heart, Ventricular myocyte; parameters: ca sol conc None mM, temp 36 C
[22] = molecular target: T1, Voltage-dependent L-type calcium channel subunit alpha-1C; assay: as §1; format: functional, cell-based, Heart, Ventricular myocyte; parameters: ca sol conc 1.8 mM, temp 36 C
[23] = molecular target: T2, Voltage-dependent L-type calcium channel subunit alpha-1C; assay: as §2; format: functional, cell-based, Heart, Ventricular myocyte; parameters: ca sol conc 2 mM, temp room
[24] = molecular target: T3, Voltage-dependent L-type calcium channel subunit alpha-1C; assay: as §3; format: functional, cell-based, HEK293; parameters: ca sol conc 0 mM, temp 21-24 C
[25] = molecular target: T1, Voltage-dependent L-type calcium channel subunit alpha-1C; assay: as §1; format: functional, cell-based, Heart, Ventricular myocyte; parameters: ca sol conc 2 mM, temp room

T1 sequence (O35505 whole entry): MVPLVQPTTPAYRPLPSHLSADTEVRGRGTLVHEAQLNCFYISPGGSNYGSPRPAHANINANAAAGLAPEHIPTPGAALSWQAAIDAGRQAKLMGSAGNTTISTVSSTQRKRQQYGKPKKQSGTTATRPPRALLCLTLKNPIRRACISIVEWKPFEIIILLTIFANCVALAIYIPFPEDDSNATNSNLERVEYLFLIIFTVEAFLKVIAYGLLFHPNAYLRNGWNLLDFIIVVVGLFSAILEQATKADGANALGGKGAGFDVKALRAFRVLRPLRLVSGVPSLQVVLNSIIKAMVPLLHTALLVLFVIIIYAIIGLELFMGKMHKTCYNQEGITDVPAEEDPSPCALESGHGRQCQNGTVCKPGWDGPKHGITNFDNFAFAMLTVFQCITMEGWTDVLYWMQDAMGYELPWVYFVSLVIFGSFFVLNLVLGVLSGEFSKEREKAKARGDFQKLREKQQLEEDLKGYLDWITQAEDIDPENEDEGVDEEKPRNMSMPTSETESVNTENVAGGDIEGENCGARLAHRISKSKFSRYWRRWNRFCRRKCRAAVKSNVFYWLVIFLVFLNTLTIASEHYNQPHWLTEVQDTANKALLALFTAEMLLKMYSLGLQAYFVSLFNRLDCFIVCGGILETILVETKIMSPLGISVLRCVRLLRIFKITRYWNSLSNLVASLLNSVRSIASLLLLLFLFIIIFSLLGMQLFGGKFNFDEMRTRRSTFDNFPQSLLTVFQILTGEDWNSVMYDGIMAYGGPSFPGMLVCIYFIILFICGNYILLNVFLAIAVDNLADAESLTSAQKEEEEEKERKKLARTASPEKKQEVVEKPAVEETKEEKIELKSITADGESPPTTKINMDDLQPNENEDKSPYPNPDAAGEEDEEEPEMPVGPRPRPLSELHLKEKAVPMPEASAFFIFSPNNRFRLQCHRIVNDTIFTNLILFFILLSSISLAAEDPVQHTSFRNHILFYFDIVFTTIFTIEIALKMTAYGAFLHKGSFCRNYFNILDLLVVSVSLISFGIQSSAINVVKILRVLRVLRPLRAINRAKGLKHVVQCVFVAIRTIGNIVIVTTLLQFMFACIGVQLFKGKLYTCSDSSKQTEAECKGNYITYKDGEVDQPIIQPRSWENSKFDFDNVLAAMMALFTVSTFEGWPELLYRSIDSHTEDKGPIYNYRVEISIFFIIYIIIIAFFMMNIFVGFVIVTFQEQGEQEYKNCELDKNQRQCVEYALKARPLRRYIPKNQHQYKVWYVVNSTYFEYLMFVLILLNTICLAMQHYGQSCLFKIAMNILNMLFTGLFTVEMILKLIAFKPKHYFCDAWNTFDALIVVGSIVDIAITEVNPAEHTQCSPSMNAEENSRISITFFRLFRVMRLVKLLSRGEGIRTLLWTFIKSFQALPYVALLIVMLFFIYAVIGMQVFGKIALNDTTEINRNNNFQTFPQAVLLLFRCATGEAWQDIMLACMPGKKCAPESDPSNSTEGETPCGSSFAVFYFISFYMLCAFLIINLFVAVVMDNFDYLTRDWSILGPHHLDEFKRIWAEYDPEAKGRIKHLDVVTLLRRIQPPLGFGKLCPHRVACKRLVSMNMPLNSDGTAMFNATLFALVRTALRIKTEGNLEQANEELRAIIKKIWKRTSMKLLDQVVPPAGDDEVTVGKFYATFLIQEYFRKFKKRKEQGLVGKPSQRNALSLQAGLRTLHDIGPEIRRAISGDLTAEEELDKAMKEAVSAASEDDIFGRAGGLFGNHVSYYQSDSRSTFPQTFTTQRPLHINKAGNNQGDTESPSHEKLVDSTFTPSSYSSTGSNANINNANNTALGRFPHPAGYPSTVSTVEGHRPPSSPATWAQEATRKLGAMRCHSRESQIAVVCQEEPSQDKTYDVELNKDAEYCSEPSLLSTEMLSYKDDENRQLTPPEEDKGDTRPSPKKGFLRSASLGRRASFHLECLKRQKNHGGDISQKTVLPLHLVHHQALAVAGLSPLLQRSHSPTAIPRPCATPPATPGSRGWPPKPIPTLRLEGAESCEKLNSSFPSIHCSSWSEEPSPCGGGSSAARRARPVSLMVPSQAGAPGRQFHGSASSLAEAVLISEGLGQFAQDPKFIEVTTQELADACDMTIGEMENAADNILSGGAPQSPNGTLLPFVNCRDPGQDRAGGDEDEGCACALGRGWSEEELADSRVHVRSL
T2 sequence (P22002 whole entry): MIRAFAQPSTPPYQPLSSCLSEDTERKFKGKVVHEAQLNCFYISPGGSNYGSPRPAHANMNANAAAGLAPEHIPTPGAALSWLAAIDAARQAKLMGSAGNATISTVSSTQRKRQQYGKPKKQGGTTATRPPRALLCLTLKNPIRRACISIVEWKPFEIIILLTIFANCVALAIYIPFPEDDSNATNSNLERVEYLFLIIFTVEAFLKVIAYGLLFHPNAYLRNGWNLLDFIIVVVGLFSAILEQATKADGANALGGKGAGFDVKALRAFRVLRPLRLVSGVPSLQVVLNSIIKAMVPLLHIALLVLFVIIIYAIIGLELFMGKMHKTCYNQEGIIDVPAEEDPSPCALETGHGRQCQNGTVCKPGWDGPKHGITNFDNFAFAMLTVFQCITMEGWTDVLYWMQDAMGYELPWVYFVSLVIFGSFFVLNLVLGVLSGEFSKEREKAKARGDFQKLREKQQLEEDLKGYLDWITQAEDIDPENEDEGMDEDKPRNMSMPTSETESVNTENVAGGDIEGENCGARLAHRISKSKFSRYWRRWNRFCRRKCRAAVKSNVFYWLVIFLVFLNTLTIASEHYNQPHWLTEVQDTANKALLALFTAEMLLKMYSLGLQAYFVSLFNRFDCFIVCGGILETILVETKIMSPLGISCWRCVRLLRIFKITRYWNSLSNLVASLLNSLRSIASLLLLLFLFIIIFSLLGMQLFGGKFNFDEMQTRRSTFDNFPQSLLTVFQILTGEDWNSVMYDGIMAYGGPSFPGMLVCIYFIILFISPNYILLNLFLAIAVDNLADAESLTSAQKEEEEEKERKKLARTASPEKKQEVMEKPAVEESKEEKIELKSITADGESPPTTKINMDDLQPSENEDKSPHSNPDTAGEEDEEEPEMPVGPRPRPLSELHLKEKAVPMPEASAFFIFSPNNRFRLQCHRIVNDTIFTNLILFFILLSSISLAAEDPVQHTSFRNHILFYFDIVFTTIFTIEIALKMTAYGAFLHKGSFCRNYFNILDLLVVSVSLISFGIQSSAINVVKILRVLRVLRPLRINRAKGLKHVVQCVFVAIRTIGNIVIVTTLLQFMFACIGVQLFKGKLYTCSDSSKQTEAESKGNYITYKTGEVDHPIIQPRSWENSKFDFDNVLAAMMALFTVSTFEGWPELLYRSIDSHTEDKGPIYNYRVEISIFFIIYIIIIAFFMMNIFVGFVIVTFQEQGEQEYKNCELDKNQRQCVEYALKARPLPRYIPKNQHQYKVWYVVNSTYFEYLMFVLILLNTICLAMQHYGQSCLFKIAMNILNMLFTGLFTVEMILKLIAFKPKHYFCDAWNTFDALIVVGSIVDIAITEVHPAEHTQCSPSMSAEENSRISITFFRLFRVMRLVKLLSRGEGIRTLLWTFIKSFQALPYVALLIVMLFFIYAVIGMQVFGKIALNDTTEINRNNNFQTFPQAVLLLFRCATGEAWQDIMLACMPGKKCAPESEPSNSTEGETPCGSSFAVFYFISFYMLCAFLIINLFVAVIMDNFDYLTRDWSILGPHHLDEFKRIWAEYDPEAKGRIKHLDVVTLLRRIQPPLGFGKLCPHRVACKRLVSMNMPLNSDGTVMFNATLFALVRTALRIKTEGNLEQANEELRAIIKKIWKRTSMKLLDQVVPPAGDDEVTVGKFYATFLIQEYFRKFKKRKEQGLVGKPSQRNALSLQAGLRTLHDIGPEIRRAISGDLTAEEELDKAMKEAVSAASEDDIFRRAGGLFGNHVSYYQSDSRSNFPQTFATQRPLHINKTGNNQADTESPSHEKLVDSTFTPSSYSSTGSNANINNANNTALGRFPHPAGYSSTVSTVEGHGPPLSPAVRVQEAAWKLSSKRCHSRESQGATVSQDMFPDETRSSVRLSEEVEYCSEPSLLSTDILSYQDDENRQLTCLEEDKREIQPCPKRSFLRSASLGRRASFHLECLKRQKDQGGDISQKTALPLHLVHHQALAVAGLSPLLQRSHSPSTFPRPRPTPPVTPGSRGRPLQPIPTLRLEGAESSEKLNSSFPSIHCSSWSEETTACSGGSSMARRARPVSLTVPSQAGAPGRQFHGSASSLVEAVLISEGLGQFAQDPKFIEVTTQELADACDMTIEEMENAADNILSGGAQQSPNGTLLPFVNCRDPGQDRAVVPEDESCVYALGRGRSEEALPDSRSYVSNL

SMILES: CC(C)COCC(CN(Cc1ccccc1)c1ccccc1)N1CCCC1 (configuration not stated) [BEPRIDIL]
IC50 [3]: 2.6 µM
IC50 [1]: 0.5 µM

SMILES: Cc1ccc(O)c([C@H](CCN(C(C)C)C(C)C)c2ccccc2)c1 [TOLTERODINE]
IC50 [4]: 0.143 µM

SMILES: C=CCN1CCN(CC(C)(C)COC(=O)C2=C(C)NC(C)=C(C(=O)OC)C2c2cccc([N+](=O)[O-])c2)CC1 (configuration not stated) [IGANIDIPINE]
IC50 [6]: 0.009 µM

SMILES: CCCCC/C=C\C/C=C\C/C=C\C/C=C\CCCC(=O)O [ARACHIDONIC ACID]
IC50 [7]: 8.5 µM
IC50 [8]: 5.8 µM

SMILES: C[C@]12CC[C@@H]3c4ccc(O)cc4CC[C@H]3[C@@H]1CC[C@@H]2O [ESTRADIOL]
IC50 [9]: 50 µM

SMILES: CN(C)CCCC1(c2ccc(F)cc2)OCc2cc(C#N)ccc21 (configuration not stated) [CITALOPRAM]
IC50 [14]: 64.5 µM

SMILES: CCCC[N+]1(CCCC(=O)c2ccc(F)cc2)CCC(O)(c2ccc(Cl)cc2)CC1 (configuration not stated)
IC50 [15]: 0.17 µM

SMILES: c1ccc(C2(c3ccccc3)CC2C2=NCCN2)cc1 (configuration not stated) [CIFENLINE]
IC50 [16]: 14.4 µM
IC50 [4]: 14 µM
IC50 [6]: 30 µM

SMILES: CC1=C(C(=O)OCCCCCCCCCC[N+](C)(C)C)C(c2cccc3nonc23)C(C(=O)OC(C)C)=C(C)N1 (configuration not stated)
IC50 [18]: 0.07 µM

SMILES: CN(C)CCC=C1c2ccccc2CCc2ccccc21 [AMITRIPTYLINE]
IC50 [14]: 23.2 µM
IC50 [23]: 3.75 µM

SMILES: COc1ccc([C@@H]2Sc3ccccc3N(CCN(C)CCc3ccc(OC)c(OC)c3)C(=O)[C@@H]2OC(C)=O)cc1
IC50 [25]: 0.0257 µM

Other lines, results leading:

IC50 [1]: 441 µM
SMILES: Cc1cccc(CCN2CCC(C(=O)c3ccc(NS(C)(=O)=O)cc3)CC2)n1

IC50 [2]: 12 µM
SMILES: O=c1c(-c2ccc(O)cc2)coc2cc(O)ccc12 [DAIDZEIN]

IC50 [5]: 17 µM
SMILES: CC(NCCC(c1ccccc1)c1ccccc1)c1ccccc1 (configuration not stated) [FENDILINE]

IC50 [10]: 125 µM
SMILES: O=C1NC(=O)C(c2ccccc2)(c2ccccc2)N1 [PHENYTOIN]

IC50 [11]: 5.3 µM
IC50 [12]: 12.7 µM
SMILES: COCCOC(=O)C1=C(C)NC(C)=C(C(=O)OC/C=C/c2ccccc2)C1c1cccc([N+](=O)[O-])c1 (configuration not stated) [CILNIDIPINE]

IC50 [1]: 16 µM
IC50 [13]: 46.9 µM
SMILES: COc1cc(N)c(Cl)cc1C(=O)NC1CCN(CCCOc2ccc(F)cc2)CC1OC (configuration not stated) [CISAPRIDE]

IC50 [17]: 5.2 µM
SMILES: CCN(CC)CCCC(C)Nc1c2ccc(Cl)cc2nc2ccc(OC)cc12 (configuration not stated) [QUINACRINE]

IC50 [11]: 3.1 µM
IC50 [19]: 1.2 µM
SMILES: COC(=O)C1=C(C)NC(C)=C(C(=O)O[C@H]2CCN(Cc3ccccc3)C2)[C@H]1c1cccc([N+](=O)[O-])c1 [BARNIDIPINE]

IC50 [20]: 12.9 µM
SMILES: O=C(O)Cc1ccccc1Nc1c(Cl)cccc1Cl [DICLOFENAC]

IC50 [21]: 0.73 µM
IC50 [22]: 0.08 µM
SMILES: COC(=O)C1=C(C)NC(C)=C(C(=O)OCC(C)C)C1c1ccccc1[N+](=O)[O-] (configuration not stated) [NISOLDIPINE]

IC50 [4]: 20 µM
IC50 [24]: 0.59 µM
SMILES: Clc1ccccc1C(c1ccccc1)(c1ccccc1)n1ccnc1 [CLOTRIMAZOLE]
